{
  "source": "paper PMC8494682",
  "about": "(Applied Microbiology and Biotechnology, 2021)",
  "key": {"[1]": {"target": "T1, pantothenate kinase (PanK, Cab1) (Saccharomyces cerevisiae, UniProt Q04430)", "T1 construct": "wild-type Cab1 expressed from pSBS5 in yeast strain JS91.14-24, partially purified on DEAE sepharose", "T1 sequence (Q04430 1-367)": "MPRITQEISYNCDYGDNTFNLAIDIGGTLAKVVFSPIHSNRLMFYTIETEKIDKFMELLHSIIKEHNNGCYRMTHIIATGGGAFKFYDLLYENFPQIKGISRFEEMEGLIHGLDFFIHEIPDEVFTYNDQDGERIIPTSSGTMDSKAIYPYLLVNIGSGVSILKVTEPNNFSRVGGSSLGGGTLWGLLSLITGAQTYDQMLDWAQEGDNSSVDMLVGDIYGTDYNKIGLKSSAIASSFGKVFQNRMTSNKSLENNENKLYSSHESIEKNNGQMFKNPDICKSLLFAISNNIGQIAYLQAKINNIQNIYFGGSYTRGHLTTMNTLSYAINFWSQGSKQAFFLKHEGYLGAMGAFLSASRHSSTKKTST", "experiment": "radiometric PanK assay with D-[[…]-14C]pantothenate, partially purified enzyme", "format": "biochemical"}, "[2]": {"target": "T2, pantothenate kinase PanK3 (murine) (Mus musculus, UniProt Q8R2W9)", "T2 construct": "murine wild-type PanK3 expressed from pJO73 in yeast strain JS91.14-24, partially purified on DEAE sepharose", "T2 sequence (Q8R2W9 1-370)": "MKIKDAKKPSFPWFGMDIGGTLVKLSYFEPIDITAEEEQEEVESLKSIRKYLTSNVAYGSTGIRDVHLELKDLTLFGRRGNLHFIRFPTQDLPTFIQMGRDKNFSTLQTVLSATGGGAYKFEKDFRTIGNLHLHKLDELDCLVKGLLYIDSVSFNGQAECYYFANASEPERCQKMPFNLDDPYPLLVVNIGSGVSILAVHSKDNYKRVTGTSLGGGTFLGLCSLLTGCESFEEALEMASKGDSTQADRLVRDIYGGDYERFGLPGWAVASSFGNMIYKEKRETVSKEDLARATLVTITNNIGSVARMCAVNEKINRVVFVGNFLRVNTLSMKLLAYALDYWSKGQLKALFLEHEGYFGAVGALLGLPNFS", "experiment": "radiometric PanK assay with D-[[…]-14C]pantothenate, partially purified enzyme", "format": "biochemical"}},
  "note": "Where two headings read alike, the source gives them in different places.",
  "data": [
    {"smiles": "CC(C)(COP(=O)(O)OP(=O)(O)OC[C@H]1O[C@@H](n2cnc3c(N)ncnc32)[C@H](O)[C@@H]1OP(=O)(O)O)[C@@H](O)C(=O)NCCC(=O)NCCSC(=O)CC(=O)O", "note": "[malonyl-CoA]", "values": [
      {"measurement": "IC50", "setting": "[1]", "result": 812, "unit": "µM"}
    ]},
    {"smiles": "CCCCCCCCCCCCCCCC(=O)SCCNC(=O)CCNC(=O)[C@H](O)C(C)(C)COP(=O)(O)OP(=O)(O)OC[C@H]1O[C@@H](n2cnc3c(N)ncnc32)[C@H](O)[C@@H]1OP(=O)(O)O", "note": "[palmitoyl-CoA]", "values": [
      {"measurement": "IC50", "setting": "[1]; read-out: IC50", "result": 891, "unit": "µM"}
    ]},
    {"smiles": "CC(C)(COP(=O)(O)OP(=O)(O)OC[C@H]1O[C@@H](n2cnc3c(N)ncnc32)[C@H](O)[C@@H]1OP(=O)(O)O)[C@@H](O)C(=O)NCCC(=O)NCCS", "note": "[Coenzyme A]", "values": [
      {"measurement": "IC50", "setting": "[1]; read-out: IC50", "result": 283, "unit": "µM"}
    ]},
    {"smiles": "CC(=O)SCCNC(=O)CCNC(=O)[C@H](O)C(C)(C)COP(=O)(O)OP(=O)(O)OC[C@H]1O[C@@H](n2cnc3c(N)ncnc32)[C@H](O)[C@@H]1OP(=O)(O)O", "note": "[acetyl-CoA]", "values": [
      {"measurement": "IC50", "setting": "[2]", "result": 1, "unit": "µM"},
      {"measurement": "IC50", "setting": "[1]", "result": 36, "unit": "µM"}
    ]}
  ]
}
